Data as given in ChEMBL document CHEMBL4376802, “State of the Art in Respiratory Syncytial Virus Drug Discovery and Development” (J Med Chem, 2019).

Experiments:
[1] = system: Human orthopneumovirus; experiment: Antiviral activity against RSV A2 infected in A549 cells incubated for 3 days by cell titer glo-based luminescence assay; type: functional, organism-based; conditions: human respiratory syncytial virus, A2, A549, 72 h
[2] = Antiviral activity against RSV B-WST infected in Hep2 cells preincubated for 1 hr followed by RSV infection and measured after 3 days by ELISA method; type: functional, cell-based; conditions: human respiratory syncytial virus, HEp-2
[3] = system: Human orthopneumovirus; experiment: Antiviral activity against RSV A2 infected in Hep2 cells preincubated for 1 hr followed by RSV infection and measured after 3 days by ELISA method; type: functional, organism-based; conditions: human respiratory syncytial virus, A2, HEp-2
[4] = system: Respiratory syncytial virus; experiment: Antiviral activity against Respiratory syncytial virus; type: functional, organism-based; conditions: human respiratory syncytial virus
[5] = system: Human orthopneumovirus; experiment: Antiviral activity against RSV A2 infected in HAE-derived cells; type: functional, organism-based; conditions: human respiratory syncytial virus
[6] = system: Respiratory syncytial virus; experiment: Antiviral activity against Respiratory syncytial virus by CPE reduction assay; type: functional, organism-based; conditions: human respiratory syncytial virus
[7] = system: Respiratory syncytial virus; experiment: Antiviral activity against recombinant RSV infected in HeLa cells assessed as reduction in eGFP expression after 3 days by laser microscopic analysis; type: functional, organism-based; conditions: human respiratory syncytial virus, 72 h
[8] = Antiviral activity against RSV B-WST infected in Hep2 cells CPE reduction assay; type: functional, cell-based; conditions: human respiratory syncytial virus, HEp-2
[9] = system: Human orthopneumovirus; experiment: Antiviral activity against RSV A2 infected in Hep2 cells by CPE reduction assay; type: functional, organism-based; conditions: human respiratory syncytial virus, A2, HEp-2
[10] = Inhibition of Respiratory syncytial virus RNA-dependent RNA polymerase
[11] = Oral bioavailability in BALB/c mouse; type: ADME, organism-based; conditions: in vivo
[12] = system: Human orthopneumovirus; experiment: Antiviral activity against HRSV expressing m-cherry infected in Hep2 cells after 48 hrs post infection by fluorescence based assay; type: functional, organism-based; conditions: human respiratory syncytial virus, HEp-2, 48 h
[13] = Oral bioavailability in rat; type: ADME, organism-based; conditions: in vivo
[14] = Oral bioavailability in dog; type: ADME, organism-based, Canis lupus familiaris; conditions: in vivo
[15] = system: Influenza A virus; experiment: Antiviral activity against influenza A virus; type: functional, organism-based
[16] = system: Human orthopneumovirus; experiment: Antiviral activity against RSV type B; type: functional, organism-based; conditions: human respiratory syncytial virus
[17] = system: Human respirovirus 3; experiment: Antiviral activity against Human parainfluenza virus 3; type: functional, organism-based
[18] = system: Human orthopneumovirus; experiment: Antiviral activity against RSV type A; type: functional, organism-based; conditions: human respiratory syncytial virus
[19] = system: Hepatitis C virus; experiment: Antiviral activity against Hepatitis C virus; type: functional, organism-based, Hepacivirus hominis
[20] = system: Human orthopneumovirus; experiment: Antiviral activity against RSV A2 infected in Hep2 cells assessed as reduction in virus-induced cytopathic effect after 5 days by resazurin dye based PCR analysis; type: functional, organism-based; conditions: human respiratory syncytial virus, A2, HEp-2, 120 h
[21] = Antiviral activity against RSV type A 1211 infected in Hep2 cells assessed as reduction in virus-induced cytopathic effect after 5 days by resazurin dye based PCR analysis; type: functional, cell-based; conditions: human respiratory syncytial virus, 1211, HEp-2, 120 h
[22] = Antiviral activity against RSV type A 492 infected in Hep2 cells assessed as reduction in virus-induced cytopathic effect after 5 days by resazurin dye based PCR analysis; type: functional, cell-based; conditions: human respiratory syncytial virus, 492, HEp-2, 120 h
[23] = Antiviral activity against RSV type A Memphis 37 infected in Hep2 cells assessed as reduction in virus-induced cytopathic effect after 5 days by resazurin dye based PCR analysis; type: functional, cell-based; conditions: human respiratory syncytial virus, Memphis 37, HEp-2, 120 h
[24] = Antiviral activity against RSV type B 1276 infected in Hep2 cells assessed as reduction in virus-induced cytopathic effect after 5 days by resazurin dye based PCR analysis; type: functional; conditions: human respiratory syncytial virus, 1276, HEp-2, 120 h; pooled result: one value given for 5 cell lines, strains, targets or settings
[25] = Antiviral activity against RSV B-WST infected in Hep2 cells assessed as reduction in virus-induced cytopathic effect after 6 days by resazurin dye based PCR analysis; type: functional, cell-based; conditions: human respiratory syncytial virus, HEp-2, 144 h
[26] = Antiviral activity against RSV type A VAN1160 infected in Hep2 cells assessed as reduction in virus-induced cytopathic effect after 5 days by resazurin dye based PCR analysis; type: functional, cell-based; conditions: human respiratory syncytial virus, VAN1160, HEp-2, 120 h
[27] = Antiviral activity against RSV type A 689 infected in Hep2 cells assessed as reduction in virus-induced cytopathic effect after 5 days by resazurin dye based PCR analysis; type: functional, cell-based; conditions: human respiratory syncytial virus, 689, HEp-2, 120 h
[28] = Antiviral activity against RSV B infected in HeLa cells; type: functional, cell-based; conditions: human respiratory syncytial virus
[29] = Plasma clearance in Beagle dog at 2 mg/ml, iv or 1.2 mg/ml, po measured up to 24 hrs by LC-MS/MS analysis; type: ADME, organism-based, Canis lupus familiaris
[30] = system: Human orthopneumovirus; experiment: Antiviral activity against RSV A infected in HeLa cells; type: functional, organism-based; conditions: human respiratory syncytial virus, type A
[31] = system: Human orthopneumovirus; experiment: Antiviral activity against Respiratory syncytial virus A plaque reduction assay; type: functional, organism-based
[32] = Oral bioavailability in mouse; type: ADME, organism-based; conditions: in vivo
[33] = Antiviral activity against Respiratory syncytial virus B plaque reduction assay; type: functional, Human respiratory syncytial virus B

O=c1n(Cc2nc(-c3nccs3)cn2CCCCO)c2cnccc2n1C1CC1
EC50 [1]: 58 nM

O=C(NC1CC1)c1cc2c(s1)-c1ccccc1N(C(=O)c1ccc(NC(=O)c3cccnc3N3CCC4(CC3)COC4)cc1)CC2
EC50 [2]: > 50 µM | EC50 [3]: 10 nM

Cc1ccc(NS(C)(=O)=O)c(C(=O)N2CCCC[C@H]2c2cc3nc4c(c(N5CCOCC5)n3n2)CCCC4)c1
EC50 [4]: 0.56 nM

CC1(C(=O)N2CC3(C2)C(=O)N(Cc2nc4c(n2CCCC(F)(F)F)CCCC4)c2ccccc23)CC1
EC50 [1]: < 100 nM

CNc1nc(N)nc2c1ncn2[C@@H]1O[C@](C)(CO[P@@](=O)(N[C@@H](C)C(=O)OC(C)C)Oc2ccccc2)[C@@H](O)[C@H]1F
EC50 [5]: 0.052 nM

CC(C)OC(=O)N1CCC2(CC1)C(=O)N(Cc1nc3cc(Cl)ccc3n1CCCC#N)c1cnccc12
EC50 [6]: 0.024 nM

O=c1n(Cc2cc3cnccc3n2CCCC(F)(F)F)c2cnccc2n1CC(F)(F)F
EC50 [7]: 0.25 nM

CC(C)CCn1c(Cn2c(=O)n(C3CCN(S(C)(=O)=O)CC3)c3ccccc32)nc(=O)c2ccccc21
EC50 [6]: 5.8 nM

CCc1cc(C(=O)N2CCc3sccc3[C@H]2C)nc2cc(-c3ccc(N4CC[C@H](C(=O)O)C4)cc3F)nn12
EC50 [4]: 2.75 nM

O=c1n(Cc2cc3cc(Cl)ccc3n2CCCCO)c2cnccc2n1C1CC1
EC50 [7]: 2 nM

Cc1cc2n(Cc3nc(OCC4CCOC4)c4cc(C#N)ccc4n3)c(=O)c3ccccc3n2n1 (configuration not stated)
EC50 [6]: 2.8 nM

CC(C)CCn1c(CN2C(=O)C3(CC3)c3ccccc32)nc2cc(CN)ccc21
EC50 [4]: 31 nM

Cc1cn(Cc2nc3ccccc3s2)c(=O)n(Cc2ccc(-c3csnn3)cc2)c1=O
EC50 [8]: > 50 µM | EC50 [9]: 1600 nM

O=C(NC1CC1)c1cc2c(s1)-c1ccccc1N(C(=O)c1ccc(NC(=O)c3ccccc3-c3ccccc3)cc1)CC2
EC50 [2]: > 20 µM | EC50 [3]: 750 nM

COC(=O)N1CC2(C1)C(=O)N(Cc1ncc3cc(C)ccc3c1-c1cncnc1)c1ccccc12
EC50 [6]: 0.2 nM

COc1cc(C(=O)NC[C@@](O)(c2cc3c(c(-c4ccc(F)cc4)n2)NC[C@@]3(C)N)C(F)(F)F)ccc1OCCO
IC50 [10]: < 1000 nM | EC50 [4]: < 1000 nM

Cc1cccc(-c2ccc([C@@H]3[C@@H](CO)N4CCCCN(S(=O)(=O)c5cn(C)cn5)C[C@@H]34)cc2)c1
EC50 [8]: > 50 µM | EC50 [9]: 3300 nM

NC1CCN(c2ncc(CN3C(=O)C4(CC4)c4ccc(F)cc43)c(NCCCO)n2)C1 (configuration not stated)
EC50 [1]: 34 nM

CCc1ccc(NS(C)(=O)=O)c(C(=O)N(C)[C@@H](CC)c2cc3nc(N4CC[C@H](N)C4)c(C)cn3n2)c1
EC50 [4]: 0.15 nM

CC(C)OC(=O)N1CC2(C1)C(=O)N(Cc1nc3cc(Br)ccc3n1CCCO)c1ccccc12
EC50 [6]: 0.8 nM | bioavailability [11]: 72%

c1coc(-c2nn3c(Cn4cnc5ccccc54)nnc3s2)c1
EC50 [4]: 660 nM

Cc1cccc2ncnc(N3CCCC[C@H]3c3cc4nc(N5CCC5)cc(N5CCOCC5)n4n3)c12
EC50 [4]: 10 nM

O=C1N(Cc2nc3cc(Cl)ccc3n2C2CCS(=O)(=O)C2)c2cnccc2C12CC2 (configuration not stated)
EC50 [6]: 1.9 nM

N#Cc1ccc(-c2ccc3c(c2)[C@H]2[C@H](CCN2C(=O)c2ccccc2F)[C@H](CO)N3)cc1
EC50 [8]: 6.8 µM | EC50 [9]: 1400 nM

O=C(O)c1cc(C(=O)O)n(Cc2ccc(Cl)cc2Cl)n1
EC50 [12]: 122 µM

Cc1ccc([C@]23Cn4cccc4C(=O)N2CCN3C(=O)c2conc2C)cn1
bioavailability [13]: 59% | bioavailability [14]: 100% | EC50 [5]: 8.4 nM

Nc1ccn([C@@H]2O[C@@](CO)(CCl)[C@@H](O)[C@H]2F)c(=O)n1 [ALS-8112]
EC50 [15]: > 100 µM | EC50 [16]: 90 to 450 nM | EC50 [17]: 1300 nM | EC50 [18]: 90 to 450 nM | EC50 [19]: > 100 µM

Cc1cnc(N2CC3(CCOCC3)C2)c(C(=O)Nc2ccc(C(=O)N3CCc4cc(C(=O)Nc5c(C)cccc5F)sc4-c4ccccc43)cc2)c1 [PC-786]
EC50 [20]: 0.5 nM | EC50 [21]: 0.46 nM | EC50 [22]: 0.46 nM | EC50 [23]: 0.46 nM | EC50 [24]: 20.2 nM | EC50 [25]: 27.3 nM | EC50 [26]: 0.46 nM | EC50 [27]: 0.46 nM

CS(=O)(=O)CCCn1c(Cn2c(=O)n(CC(F)(F)F)c3ccncc32)cc2cc(Cl)ccc21 [RILEMATOVIR]
EC50 [7]: 0.46 to 0.5 nM | EC50 [28]: 0.2 to 20 nM | clearance [29]: 9 mL/min/kg | EC50 [30]: 0.2 to 20 nM

NCc1ccc2c(c1)nc(CN1C(=O)C3(CC3)c3ccc(F)cc31)n2CCCC(F)(F)F [SISUNATOVIR]
bioavailability [14]: 63% | EC50 [31]: 0.1 to 1.4 nM | bioavailability [32]: 46% | EC50 [33]: 0.1 to 1.4 nM

O=C1Nc2ccccc2C(c2ccccc2)=N[C@@H]1Nc1nnc(-c2ncc(C(F)(F)F)cc2N2CCOCC2)o1 [ZELICAPAVIR]
EC50 [4]: < 400 nM
